In paper PMC10302047, “Structure–Activity Relationship Studies of Indolglyoxyl-Polyamine Conjugates as Antimicrobials and Antibiotic Potentiators” (Pharmaceuticals, 2023):
Converted amounts (≈) assume the structure as drawn. Where two headings read alike, the source gives them in different places.

Tests used:
[1] = test system: HEK293 (human embryonic kidney cells); settings: human embryonic kidney cell line HEK293; ref [15]; read-out: IC50 cytotoxicity; cited from earlier work
Cryptococcus neoformans = test system: Cryptococcus neoformans; set-up: method as in PMID 30975502; settings: fungus Cryptococcus neoformans; ref [15]; cited from earlier work
S. aureus ATCC 25923 [2] = settings: Staphylococcus aureus ATCC 25923; ref [15]; cited from earlier work
P. aeruginosa ATCC 27853 [3] = settings: Pseudomonas aeruginosa; result in words; ref [15]; cited from earlier work
[4] = test system: rat skeletal myoblast cell line L6; set-up: method as in PMID 30975502; settings: ref [15], read-out: IC50 cytotoxicity; cited from earlier work
[5] = Cytotoxicity assay HEK293; assay type: cell-based, human; settings: human, HEK293 cells, mean (n = 2), read-out: Cyto. IC50 (concentration of compound at 50% cytotoxicity)
Procedure: (§1) Cytotoxicity assays were conducted according to previously reported protocols.

[6] = test system: HEK293 (human embryonic kidney cells); test: Cytotoxicity assay HEK293; assay type: cell-based; settings: mean (n = 2)
Procedure: as §1

P. aeruginosa ATCC 27853 [7] = test: Antimicrobial susceptibility (MIC), P. aeruginosa; assay type: cell-based; settings: Pseudomonas aeruginosa, ATCC27853, mean (n = 3), read-out: MIC P. a
Procedure, shortened: (§2)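 MICs against E. coli ATCC 25922 and P. aeruginosa ATCC 27853 followed previously reported protocols. MRSA ATCC 43300 and C. albicans ATCC 90028 were tested by CO-ADD under its standard protocols.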

C. albicans ATCC 90028 = test: Antifungal susceptibility (MIC), C. albicans; assay type: cell-based; settings: Candida albicans, ATCC90028, mean (n = 2)
Procedure, shortened: as §2

E. coli ATCC 25922 = test: Antimicrobial susceptibility (MIC), E. coli; assay type: cell-based; settings: Escherichia coli, ATCC25922, mean (n = 3)
Procedure, shortened: as §2

P. aeruginosa ATCC 27853 [8] = test: Antibiotic potentiation (MIC of antibiotics in the presence of synergizing compounds), P. aeruginosa; assay type: cell-based, Pseudomonas aeruginosa
S. aureus ATCC 25923 [9] = test: Antimicrobial susceptibility (MIC), S. aureus; assay type: cell-based, Staphylococcus aureus; settings: Staphylococcus aureus, ATCC25923; S. aureus ATCC 25923; mean (n = 3)
MRSA ATCC 43300 = test: Antimicrobial susceptibility (MIC), MRSA; assay type: cell-based; settings: Staphylococcus aureus; MRSA ATCC 43300; mean (n = 2); read-out: MIC MRSA
Procedure, shortened: as §2

Compound | IC50 [1] | MIC (Cryptococcus neoformans) | MIC (S. aureus ATCC 25923 [2]) | antibiotic enhancement in combination with doxycycline (P. aeruginosa ATCC 27853 [3]) | IC50 [4] | IC50 [5] | Cyto. IC50 (concentration of compound at 50% cytotoxicity) [6] | MIC (P. aeruginosa ATCC 27853 [7]) | MIC (C. albicans ATCC 90028) | MIC (E. coli ATCC 25922) | Concentration (µM) for Potentiation of chloramphenicol (P. aeruginosa ATCC 27853 [8]; P. aeruginosa ATCC 27853, chloramphenicol 2 µg/mL, mean (n = 3)) | Concentration (µM) for Potentiation of minocycline (P. aeruginosa ATCC 27853 [8]; P. aeruginosa ATCC 27853, minocycline 2 µg/mL, mean (n = 3)) | Concentration (µM) for Potentiation, no antibiotic (P. aeruginosa ATCC 27853 [8]; P. aeruginosa ATCC 27853, no antibiotic, mean (n = 3)) | Conc (µM) for Potentiation of doxycycline (P. aeruginosa ATCC 27853 [8]; concentration required to restore doxycycline activity at 2 µg/mL (4.5 µM) against P. aeruginosa ATCC 27853) | MIC (S. aureus ATCC 25923 [9]) | MIC (MRSA ATCC 43300)
O=C(NCCCNCCCCNCCCNC(=O)C(=O)c1c[nH]c2cc(Br)ccc12)C(=O)c1c[nH]c2cc(Br)ccc12 [Compound 1] | 5.1 µM | 1.1 µM (≈ 0.773 µg/mL) | 6.25 µM (≈ 4.39 µg/mL) | strong antibiotic enhancement effect | 7.7 µM |  |  |  |  |  |  |  |  |  |  | 
COc1ccc2[nH]cc(C(=O)C(=O)NCCCNCCCCCCNCCCNC(=O)C(=O)c3c[nH]c4ccc(OC)cc34)c2c1.O=C(O)C(F)(F)F.O=C(O)C(F)(F)F [Compound 19a, N^1,N^6-Bis(3-(2-(5-methoxy-1H-indol-3-yl)-2-oxoacetamido)propyl)hexane-1,6-diaminium 2,2,2-trifluoroacetate] |  |  |  |  |  | > 37 µM | non-toxic | > 200 µM | > 37 µM | > 200 µM | 58 µM | 14.5 µM | >200 µM | 7.3 µM | 29 µM | > 37 µM
